Consider two compounds from publication PMC4230991, “In Silico Design and Biological Evaluation of a Dual Specificity Kinase Inhibitor Targeting Cell Cycle Progression and Angiogenesis” (PLoS ONE, 2014).

The term IC50 denotes the concentration at which inhibition is half-maximal. What is called inhibition is the change of the read-out against control, counted positive when it falls.

Like-named read-outs stand apart in the source and are kept apart here.

One data set addresses T1, recombinant human VEGFR2 (Homo sapiens, UniProt P35968).
T1 construct: purchased Reaction Biology
As to the kind of experiment: 33P in vitro kinase HotSpot profiling assay, VEGFR2. Format: biochemical.

Data set [1] has as its target T2, recombinant human CDK1/cyclin B complex (Homo sapiens, UniProt P06493).
T2 construct: purchased Reaction Biology
As to the kind of experiment: 33P in vitro kinase HotSpot profiling assay, CDK1/cyclin B. Format: biochemical. The settings on record: [γ-33P]-ATP 10 µM; substrate histone H1; ten-point curves.

In a further data set the test system is VEGFR2. As to the kind of experiment: Immunoblot of VEGF-A-stimulated VEGFR2 activation and downstream signaling in HUVECs. In kind it is cell-based, human. As to the method: (§1) All experiments were conducted at <6 cell passages.
(§2) Figure 2 JK-31 inhibits growth factor-stimulated receptor activation and downstream signal transduction. (A) HUVECs were pre-treated with JK-31 (0, 0.1, 1, 10 or 50 µM) for 30 min followed by 7.5 min stimulation with VEGF-A (25 ng/ml) in the presence of JK-31. Total cell lysates were prepared and processed for immunoblotting. Levels of phosphorylated VEGFR2, PLCγ1, Akt and ERK were analysed using phospho-specific antibodies. Membranes were stripped and re-probed for total protein levels and a loading control (α-tubulin). (B) Densitometric quantification of phosphorylated VEGFR2-pY1175 levels in response to VEGF-A and JK-31 treatment. Error bars represent ± SEM (n = 4; ***p<0.001). (C-D) JK-31 inhibits FGF-stimulated intracellular signaling in endothelial cells. HUVECs were pre-treated with JK-31 (0, 0.1, 1, 10 or 50 µM) for 30 min followed by 10 min stimulation with either (C) bFGF (50 ng/ml) or (D) aFGF (50 ng/ml) in the presence of JK-31. Cells were lysed and processed for immunoblotting. Representative immunoblots of three independent experiments are shown.
(Immunoblotting shows a protein as a band on a membrane.)

Data set [2] has as its system FGF-stimulated intracellular signaling. The data set can be described thus: Immunoblot of FGF (aFGF, bFGF)-stimulated ERK1/2 phosphorylation in HUVECs. In kind it is cell-based, human. The settings on record: JK-31 0.1-50 µM. The procedure: as §1, §2
The next data set has as its system IGF-1-mediated signaling. As to the kind of experiment: Immunoblot of IGF-1-mediated signaling in HUVECs. Format: cell-based, human. The settings on record: JK-31 0.1-50 µM, IGF-1 100 ng/ml 10 min. The procedure: as §1
Supplementary file pone.0110997.s006.tif: Figure S6 Relative specificity of JK-31 for the VEGF-A-VEGFR2 signaling pathway. […] HUVECs were pre-treated with JK-31 (0, 0.1, 1, 10 or 50 µM) for 30 min followed by a 10 min stimulation with either (A) EGF (50 ng/ml) or (B) IGF-1 (100 ng/ml) in the presence of JK-31. Total cell lysates were prepared and processed for immunoblotting. Levels of phosphorylated Akt and ERK1/2 were analysed using phospho-specific antibodies. Membranes were stripped and re-probed for total protein levels and a loading control (α-tubulin). Representative immunoblots of three independent experiments are shown. (TIF) Click here for additional data file.

The subject of data set [3] is mouse aortic ring explants. As to the kind of experiment: Ex vivo murine aortic ring angiogenesis assay. Format: cell-based. The following applies: 10 µM and above, six days, Matrigel. The procedure:
Three male five-month old wild type C57Bl/6 mice were humanely sacrificed followed by cervical dislocation. A thoraco-abdominal incision was made and the heart and aorta excised and stored in Hank's balanced buffer. The aortas were cleaned by removing connective tissue and adventitia from the exterior and each aorta was cut into 18–24 rings. Ring explants were embedded into growth-factor reduced Matrigel basement membrane matrix (Beckton Dickinson) in a 24-well plate and incubated for 45 min at 37°C to allow the Matrigel to set and the rings to adhere. […] Rings were photographed and the degree of sprouting measured using Cell∧B imaging software (Olympus, Tokyo, Japan). The mean of the three longest angiogenic sprouts on each ring was measured.
Figure 3 JK-31 inhibits angiogenesis in an ex vivo murine model and in vitro. […] (B) Absolute quantification of angiogenic sprout length. For each aortic ring, the mean of three longest sprouts was calculated. […] (D) Fluorescence microscopy analysis of endothelial cell phenotypes and filopodia formation during tubulogenesis in the presence of VEGF-A and JK-31. […] Quantification of (F) mean tubule branch length and (G) mean number of tubule branch points in response to JK-31 and exogenous growth factors. Light micrograph fields were chosen at random and quantification performed using Image J software. […]

Data set [4] deals with HUVECs. The data set can be described thus: Organotypic tubulogenesis assay (HUVEC-fibroblast co-culture). In kind it is cell-based, human. The settings on record: for inhibition at 10 µM / inhibition at 50 µM: Homo sapiens, HUVEC. The procedure: This assay was performed as previously described, [27]. Primary human foreskin fibroblasts (pHFF) were a gift from Gareth Howell (University of Leeds, UK) and were cultured routinely in DMEM containing 10% (v/v) FBS up to passage 10. In co-culture with HUVECs, the medium was replaced for endothelial cell growth medium (Promocell, Heidelberg, Germany).
Figure 3 JK-31 inhibits angiogenesis in an ex vivo murine model and in vitro. (A) Effects of JK-31 on ex vivo angiogenic sprouting from wild-type mouse aortic ring explants. Aortic rings were seeded onto Matrigel and treated with JK-31 (0, 1, 10 or 50 µM) for six days and imaged by phase-contrast microscopy. Freehand black lines delineate the outermost extent of sprouting. (B) Absolute quantification of angiogenic sprout length. For each aortic ring, the mean of three longest sprouts was calculated. Error bars represent ±SEM (n = 18; ***p<0.001). (C) JK-31 inhibits endothelial tube formation in vitro in response to exogenous VEGF-A. HUVECs were seeded onto a confluent layer of primary fibroblasts and treated with VEGF-A (10 ng/ml) for seven days in the presence of DMSO or JK-31 (1, 10 or 50 µM). Co-cultures were stained with CD31 antibody followed by HRP-conjugated secondary antibody and visualized by light microscopy using […] (DAB)-staining (see Materials and Methods). (D) Fluorescence microscopy analysis of endothelial cell phenotypes and filopodia formation during tubulogenesis in the presence of VEGF-A and JK-31. White arrowheads indicate vestigial lamellipodia-like structures. (E) JK-31 inhibits endothelial tube formation in vitro in response to exogenous bFGF (20 ng/ml). Treatment and processing was carried out as described above. Quantification of (F) mean tubule branch length and (G) mean number of tubule branch points in response to JK-31 and exogenous growth factors. Light micrograph fields were chosen at random and quantification performed using Image J software. Error bars represent ± SEM (n = 10; *p<0.05; **p<0.01; ***p<0.001) for each respective growth factor.

Data set [5] deals with HUVECs. As to the kind of experiment: Scratch wound healing assay. In kind it is cell-based, human. The settings on record: 10 µM and above, 16 h. As to the method: Figure 4 JK-31 inhibits endothelial wound closure in vitro. (A) Scratch-wounded endothelial cell monolayers were incubated in either full growth medium (grey bars) or stimulated with 25 ng/ml VEGF-A (black bars) for 16 h in the presence of DMSO or JK-31 (1, 10 or 50 µM). Wounded cell monolayers were photographed before and after treatment and wound widths at each time point were measured using Image J software. Percentage wound closure was calculated by [(width before – width after)/width before] ×100. […] (B) Representative phase-contrast micrographs depicting wound closure over 16 h in the presence VEGF-A and either DMSO or JK-31 (10 µM).

Data set [6] deals with HUVECs. The data set can be described thus: MTS cell viability assay. In kind it is cell-based, human. The following applies: two days (48 h), concentrations of up to 50 µM. As to the method:
2000 endothelial cells were seeded per well of a 96-well plate and cultured in ECGM overnight. ECGM was then aspirated and cells starved in MCDB131 +0.2% (w/v) BSA for 2 h. After 2 h, media was changed for ECGM with or without DMSO, plus or minus 100 nM, 1 µM, 10 µM or 50 µM JK-31 and cells incubated for 48 h. Then, 10 µl of MTS reagent (CellTiter 96 AQueous Non-Radioactive Cell Proliferation Assay, Promega, Madison, Wisconsin, USA) was added to each well after 44 h. After further incubation for 4-6 h, we monitored the color change caused by reduction of the yellow tetrazolium compound (MTS) by metabolically active cells to brown formazan. Change in color was monitored at 490 nm using a Tecan Sunrise multiwavelength 96-well plate reader (Tecan, Mannedorf, Switzerland).
(A) Relevant protein expression in HUVECs and MCF-7 cells. Total cell lysates were processed for immunoblotting. Membranes were probed with antibodies raised against VEGFR2, CDK1 and β-actin. Representative immunoblot was shown. (B) HUVECs were treated with DMSO or JK-31 (0.1, 1, 10, 50 µM) in full growth medium for 48 h followed by MTS assay and subsequent measurement of absorbance at OD490. Error bars represent ±SEM (n = 5). (TIF) Click here for additional data file.

Data set [7] concerns HUVECs. As to the kind of experiment: Flow cytometry analysis of cell cycle progression, endothelial cells. The settings on record: 48 h.
Protocol: (§3) Cells were pelleted at 140 g at 4°C for 5 min and supernatant discarded. Cells were fixed in ice-cold 70% (v/v) ethanol added dropwise and stored at −20°C prior to analysis. Immediately before flow cytometry, cells were pelleted (140 g at 4°C for 5 min), supernatant removed and cells washed twice in 500 µl PBS. 100 µg/ml ribonuclease and 50 µg/ml propidium iodide (Sigma-Aldrich) was added to each sample and incubated for 2–3 h at 37°C. Cells were pelleted (140 g at 4°C for 5 min), supernatant removed and cells washed in 500 µl PBS before being resuspended in 500 µl PBS buffer containing 2.5 mM EDTA. Samples were gated and run at a low flow rate (<1000 events s^−1) on a Fortessa flow cytometer (Becton Dickinson, Oxford, UK) with multi-laser and detection capabilities. The information from 10000 events was collect and data was analyzed using ModFit software (Becton Dickinson).
(H) Quantification of cell cycle ratios after inhibitor treatment. Error bars represent ±SEM (n = 3). ***p<0.001; ****p<0.0001.
For the next data set, the system named is MCF-7 cells. As to the kind of experiment: Flow cytometry analysis of cell cycle progression, breast cancer cells. The settings on record: 48 h.
Data set [8] addresses T2, recombinant human CDK1/cyclin B complex. Also on record: method as in PMID 16204078. The settings on record: relative potency from IC50 values of a previous study; cited from earlier work.
[9] abbreviates: JK-31 10 or 50 µM, vs asynchronous controls.

T2 sequence (P06493 whole entry): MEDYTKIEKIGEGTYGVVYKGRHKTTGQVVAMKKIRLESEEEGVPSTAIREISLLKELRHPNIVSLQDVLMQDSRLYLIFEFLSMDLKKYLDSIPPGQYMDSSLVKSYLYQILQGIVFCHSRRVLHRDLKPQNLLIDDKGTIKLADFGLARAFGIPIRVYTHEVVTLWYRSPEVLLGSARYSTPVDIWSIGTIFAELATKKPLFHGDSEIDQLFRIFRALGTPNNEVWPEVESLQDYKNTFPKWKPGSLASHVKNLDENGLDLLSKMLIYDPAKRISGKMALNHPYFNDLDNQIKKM
T2 sequence (P14635 whole entry partner): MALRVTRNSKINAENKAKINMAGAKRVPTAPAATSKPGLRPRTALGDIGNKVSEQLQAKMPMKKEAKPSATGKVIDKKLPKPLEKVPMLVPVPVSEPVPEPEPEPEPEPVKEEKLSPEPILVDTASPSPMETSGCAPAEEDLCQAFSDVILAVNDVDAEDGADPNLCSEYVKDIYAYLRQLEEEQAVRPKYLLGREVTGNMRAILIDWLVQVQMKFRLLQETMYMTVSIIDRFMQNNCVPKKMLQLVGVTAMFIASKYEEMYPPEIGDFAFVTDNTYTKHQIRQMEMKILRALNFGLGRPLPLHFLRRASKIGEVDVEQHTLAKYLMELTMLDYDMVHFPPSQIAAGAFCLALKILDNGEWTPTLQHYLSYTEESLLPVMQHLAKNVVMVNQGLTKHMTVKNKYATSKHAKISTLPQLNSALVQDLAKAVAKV
T1 sequence (P35968 20-1356): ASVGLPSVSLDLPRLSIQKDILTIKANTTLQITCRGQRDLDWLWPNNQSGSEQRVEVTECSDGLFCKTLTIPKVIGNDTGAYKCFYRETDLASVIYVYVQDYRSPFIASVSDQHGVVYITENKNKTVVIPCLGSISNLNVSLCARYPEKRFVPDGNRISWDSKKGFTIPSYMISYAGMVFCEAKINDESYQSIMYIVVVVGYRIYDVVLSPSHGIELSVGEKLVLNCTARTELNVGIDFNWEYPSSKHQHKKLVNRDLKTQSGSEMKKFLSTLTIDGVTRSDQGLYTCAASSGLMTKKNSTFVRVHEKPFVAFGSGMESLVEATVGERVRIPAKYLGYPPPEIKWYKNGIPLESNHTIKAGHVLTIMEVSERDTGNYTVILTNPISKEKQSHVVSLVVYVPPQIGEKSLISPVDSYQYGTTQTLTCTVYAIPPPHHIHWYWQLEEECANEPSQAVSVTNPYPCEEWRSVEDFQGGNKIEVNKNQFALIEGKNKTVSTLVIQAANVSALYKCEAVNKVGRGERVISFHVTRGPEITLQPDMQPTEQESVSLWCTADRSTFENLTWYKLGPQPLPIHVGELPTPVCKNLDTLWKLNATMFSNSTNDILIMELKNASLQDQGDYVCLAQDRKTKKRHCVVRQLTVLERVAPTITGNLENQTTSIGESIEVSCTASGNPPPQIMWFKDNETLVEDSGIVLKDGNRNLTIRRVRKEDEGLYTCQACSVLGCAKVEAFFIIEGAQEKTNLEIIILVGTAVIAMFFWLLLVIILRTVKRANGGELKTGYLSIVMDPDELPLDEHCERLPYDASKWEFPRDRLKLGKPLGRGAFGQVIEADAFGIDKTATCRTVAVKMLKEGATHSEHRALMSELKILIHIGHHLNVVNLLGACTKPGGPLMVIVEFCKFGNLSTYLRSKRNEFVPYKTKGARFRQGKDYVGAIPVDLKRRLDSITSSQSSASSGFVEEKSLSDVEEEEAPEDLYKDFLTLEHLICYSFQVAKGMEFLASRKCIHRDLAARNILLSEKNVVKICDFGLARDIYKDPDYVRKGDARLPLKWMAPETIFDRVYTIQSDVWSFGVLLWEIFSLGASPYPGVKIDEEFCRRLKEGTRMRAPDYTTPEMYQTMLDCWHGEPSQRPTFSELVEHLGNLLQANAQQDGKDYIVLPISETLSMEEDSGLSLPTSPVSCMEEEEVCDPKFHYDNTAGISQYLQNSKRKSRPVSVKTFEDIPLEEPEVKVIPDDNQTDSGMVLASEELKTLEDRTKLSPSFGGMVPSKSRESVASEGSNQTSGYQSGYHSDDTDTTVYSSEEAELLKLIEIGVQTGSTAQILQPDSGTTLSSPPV
Protocol for MCF-7 cells: as §3
(H) Quantification of cell cycle ratios after inhibitor treatment. Error bars represent ±SEM (n = 3).). *p<0.05; **p<0.01; ***p<0.001; ****p<0.0001.

Turning to `CC(C)(C)c1ccc(C(=O)n2nc(Nc3ccccc3)nc2N)cc1` [JK-31, (5-amino-3-(phenylamino)-1H-1,2,4-triazol-1-yl)(4-(tert-butyl)phenyl)methanone], the IC50 on recombinant human VEGFR2 ([γ-33P]-ATP 10 µM, substrate poly[Glu:Tyr] (4:1), ten-point curves) was found to be 627 nM; in [1] it was 2540 nM. For the same compound, the “Selectivity for VEGFR2 than CDK1” value at recombinant human VEGFR2 (relative potency from IC50 values) is reported as ~4 fold. Besides, the “Inhibition of phosphorylation of residue Y1175 within VEGFR2” value in the data set on VEGFR2 (HUVECs, JK-31 10 µM and above, 30 min pre-treatment, VEGF-A 25 ng/ml 7.5 min) is > 60%. Besides, the “VEGF-A-stimulated signal transduction (PLCγ1-pY783, Akt-pS473, ERK1/2-pT202/pY204)” value in the data set on VEGFR2 (HUVECs, JK-31 0.1-50 µM, VEGF-A 25 ng/ml 7.5 min) is “inhibited VEGF-A-stimulated signal transduction in a dose-dependent manner”. The “Cellular IC50 relative to cell-free phosphorylation assay” value with VEGFR2 (VEGF-A-stimulated VEGFR2 activation and downstream signaling in endothelial cells vs recombinant kinases) is on record as “approximately 10 fold”. In data set [2] (aFGF 50 ng/ml 10 min), the “ERK1/2 phosphorylation in response to aFGF” value was “dose-dependent inhibition”. In addition, in data set [2] (bFGF 50 ng/ml 10 min), the “ERK1/2 phosphorylation in response to bFGF” value is given as “dose-dependent inhibition”. For the same compound, the “ERK1/2 phosphorylation in response to IGF-1” value in the data set with IGF-1-mediated signaling was “not in response to either EGF or IGF-1”. Moreover, the “Inhibition of radial angiogenic sprout formation” value in data set [3] is “more than 40%”. Besides, the “Reduction of bFGF-stimulated branching” value was “more than 90%” with HUVECs [4] (10 µM, bFGF 20 ng/ml) and “more than 90%” with HUVECs [4] (50 µM, bFGF 20 ng/ml). Moreover, the Endothelial tubule phenotype entry in the data set on HUVECs [4] (10 µM, in the presence of VEGF-A) was “aberrant hyper-branched endothelial tubule phenotype”. In addition, the “Reduction in branching (VEGF-A)” value with HUVECs [4] (50 µM, VEGF-A 10 ng/ml, seven days) was “more than 80%”. Also, the inhibition at 10 µM in the data set with HUVECs [4] (168 h, 10 µM, VEGF-A 10 ng/ml, seven days, read-out: Inhibition of VEGF-A-stimulated endothelial tube formation) is ~35%; in the data set with HUVECs [4] (10 µM, bFGF 20 ng/ml, read-out: Inhibition of bFGF-stimulated endothelial tube formation), ~75%. In addition, the inhibition at 50 µM was > 80% with HUVECs [4] (168 h, 50 µM, VEGF-A 10 ng/ml, seven days, read-out: Inhibition of VEGF-A-stimulated endothelial tube formation) and > 95% with HUVECs [4] (50 µM, bFGF 20 ng/ml, read-out: Inhibition of bFGF-stimulated endothelial tube formation). Moreover, the VEGF-A-stimulated wound closure entry in the data set on HUVECs [5] (VEGF-A 25 ng/ml) is reported as “completely inhibited”. Also, the “Wound closure in full growth medium” value with HUVECs [5] (full growth medium) is “only partially inhibited”. Further, the “Cytotoxic effects on endothelial cells (cell viability, MTS)” value with HUVECs [6] is “no significant cytotoxic effects”. The “Number of cells present in G1” value in the data set with HUVECs [7] (JK-31 10 or 50 µM) and in the data set with MCF-7 cells (JK-31 10 or 50 µM) was “significant increase in the number of cells present in G1” in each case. For the same compound, the “Proportion of cells in G2/M phase” value in the data set with HUVECs [7] (setting [9]) and in the data set on MCF-7 cells (setting [9]) was “significant decrease in the proportion of cells in the G2/M phase” throughout. Besides, the “Number of cells present in S phase” value with HUVECs [7] (JK-31 treatment) is “not a significant change”; in the data set with MCF-7 cells (JK-31 treatment) it was “significantly decreased”.

On to `Nc1nc(Nc2ccc(S(N)(=O)=O)cc2)nn1C(=O)c1c(F)cccc1F` [JNJ-7706621], for which, in data set [8], the “More potent inhibitor of CDK1 than VEGFR2” value was ~17 fold.
